Measurements as given in ChEMBL document CHEMBL1201862, “PubChem BioAssay data set” (2004).
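These data come from cells grown in 96-well plates and exposed to compound for 48 hours at five concentrations. At the GI50, growth is halved.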 Calls of active or inactive are those of the source. No stated cut-off is given here; in the data, active = GI50 up to about 1.1 µM and inactive = higher.

What was measured:
Assay in all cases: DTP human tumour cell line panel, 48 h
NCI-H522 = test system: NCI-H522
MCF7 = test system: MCF7
LOX IMVI = test system: LOX IMVI
RPMI-8226 = test system: RPMI-8226
UO-31 = test system: UO-31
PC-3 = test system: PC-3
SK-OV-3 = test system: SK-OV-3
NCI-H460 = test system: NCI-H460
ACHN = test system: ACHN
Malme-3M = test system: Malme-3M
K562 = test system: K562
SF-539 = test system: SF-539
HCT-116 = test system: HCT-116
CCRF-CEM = test system: CCRF-CEM
Hs-578T = test system: Hs-578T
DU-145 = test system: DU-145
786-0 = test system: 786-0
COLO 205 = test system: COLO 205
SN12C = test system: SN12C
NCI/ADR-RES = test system: NCI/ADR-RES

Measured: GI50

CC(C)c1c(O)c(O)c2c(c1O)C(=O)C(O)=C1C(C)(C)CCC[C@@]12C
inactive: NCI-H522 3.56 µM | MCF7 3.13 µM | LOX IMVI 4.32 µM | RPMI-8226 1.26 µM | UO-31 2.32 µM | PC-3 2.64 µM | SK-OV-3 3.81 µM | NCI-H460 3.19 µM | ACHN 2.96 µM | Malme-3M 3.88 µM | K562 2.77 µM | SF-539 3.59 µM | HCT-116 3.4 µM | CCRF-CEM 3.48 µM | Hs-578T 4.31 µM | DU-145 4.13 µM | 786-0 3.44 µM | COLO 205 1.97 µM | SN12C 3.23 µM

CCc1cccc(C(C)C)c1NC(=O)C(=O)Nn1c(S)nc2ccccc2c1=O
inactive: NCI-H522 > 100 µM | MCF7 > 100 µM | LOX IMVI > 100 µM | RPMI-8226 > 100 µM | UO-31 > 100 µM | PC-3 > 100 µM | SK-OV-3 > 100 µM | NCI-H460 > 100 µM | ACHN > 100 µM | Malme-3M > 100 µM | K562 > 100 µM | SF-539 > 100 µM | HCT-116 > 100 µM | CCRF-CEM > 100 µM | Hs-578T > 100 µM | NCI/ADR-RES 47.8 µM | 786-0 > 100 µM | SN12C > 100 µM

COC(=O)c1c(C)cccc1/C=C1\Cc2cc(C)cc(C)c2C1=O
inactive: NCI-H522 11.2 µM | MCF7 25.8 µM | LOX IMVI > 100 µM | RPMI-8226 > 100 µM | UO-31 > 100 µM | PC-3 > 100 µM | NCI-H460 98.4 µM | ACHN 27.9 µM | Malme-3M > 100 µM | K562 > 100 µM | SF-539 35.1 µM | HCT-116 36.8 µM | CCRF-CEM > 100 µM | Hs-578T 18.1 µM | DU-145 > 100 µM | 786-0 16.3 µM | SN12C > 100 µM

OCCN(/N=C\c1ccc2ccccc2c1)C1=NCCN1
inactive: MCF7 36.1 µM | LOX IMVI 16.3 µM | RPMI-8226 28.8 µM | UO-31 54.7 µM | PC-3 24.9 µM | SK-OV-3 47.9 µM | NCI-H460 29.4 µM | ACHN 29.1 µM | Malme-3M 15.6 µM | K562 14.4 µM | SF-539 21 µM | HCT-116 26.7 µM | CCRF-CEM 27.6 µM | Hs-578T 36.1 µM | DU-145 31.6 µM | 786-0 25.2 µM | COLO 205 17.9 µM | SN12C 25.3 µM

O=C1Cc2c([nH]c3ccc([N+](=O)[O-])cc23)-c2ccccc2N1 [ALSTERPAULLONE]
active: MCF7 0.508 µM | LOX IMVI 0.181 µM | RPMI-8226 0.438 µM | UO-31 0.109 µM | PC-3 0.836 µM | NCI-H460 0.396 µM | ACHN 0.288 µM | K562 0.774 µM | SF-539 0.397 µM | HCT-116 0.116 µM | CCRF-CEM 0.118 µM | DU-145 0.209 µM | NCI/ADR-RES 0.61 µM | 786-0 0.406 µM | COLO 205 0.235 µM | SN12C 0.391 µM
inactive: NCI-H522 1.22 µM | SK-OV-3 2.3 µM | Malme-3M 9.08 µM

C/C(=N\Nc1nc2ccccc2n1C)c1cc2ccccc2cn1
active: NCI-H522 < 0.01 µM | MCF7 < 0.01 µM | LOX IMVI 0.0305 µM | RPMI-8226 < 0.01 µM | UO-31 < 0.01 µM | SK-OV-3 0.0339 µM | NCI-H460 0.0653 µM | ACHN < 0.01 µM | Malme-3M < 0.01 µM | K562 < 0.0135 µM | SF-539 0.441 µM | HCT-116 < 0.01 µM | CCRF-CEM 0.0161 µM | Hs-578T 0.0933 µM | NCI/ADR-RES < 0.0182 µM | 786-0 < 0.0173 µM | COLO 205 < 0.01 µM | SN12C < 0.01 µM
inactive: DU-145 1.58 µM
